Reference: paper PMC10080691, “Enzyme-Responsive Double-Locked Photodynamic Molecular Beacon for Targeted Photodynamic Anticancer Therapy” (Journal of the American Chemical Society, 2023)

What was measured:
[1] = Fluorescence quantum yield in DMF; assay type: physicochemical; settings: excited at 610 nm, relative to ZnPc (ΦF = 0.28 in DMF)
Text: The electronic absorption and fluorescence spectra of PMB 1 were first recorded in DMF and compared with those of the components 8 and 11, as well as the non-cleavable analogue 14 (Figure S2 and Table 1). […] In contrast, the fluorescence spectra of 1 and 14 were remarkably different from that of DSBDP 8.

MMP-2 = target: T1, MMP-2 (Homo sapiens, UniProt P08253); experiment: MMP-2-responsive fluorescence activation and cleavage (LC-MS); assay type: biochemical; settings: 1 μM; for on/off ratio (fluorescence intensity at 25 h / initial intensity): MMP-2 only (2 μg mL-1), PBS pH 7.4, 0.1% Tween 80, 37 °C
T1 sequence (P08253 110-660): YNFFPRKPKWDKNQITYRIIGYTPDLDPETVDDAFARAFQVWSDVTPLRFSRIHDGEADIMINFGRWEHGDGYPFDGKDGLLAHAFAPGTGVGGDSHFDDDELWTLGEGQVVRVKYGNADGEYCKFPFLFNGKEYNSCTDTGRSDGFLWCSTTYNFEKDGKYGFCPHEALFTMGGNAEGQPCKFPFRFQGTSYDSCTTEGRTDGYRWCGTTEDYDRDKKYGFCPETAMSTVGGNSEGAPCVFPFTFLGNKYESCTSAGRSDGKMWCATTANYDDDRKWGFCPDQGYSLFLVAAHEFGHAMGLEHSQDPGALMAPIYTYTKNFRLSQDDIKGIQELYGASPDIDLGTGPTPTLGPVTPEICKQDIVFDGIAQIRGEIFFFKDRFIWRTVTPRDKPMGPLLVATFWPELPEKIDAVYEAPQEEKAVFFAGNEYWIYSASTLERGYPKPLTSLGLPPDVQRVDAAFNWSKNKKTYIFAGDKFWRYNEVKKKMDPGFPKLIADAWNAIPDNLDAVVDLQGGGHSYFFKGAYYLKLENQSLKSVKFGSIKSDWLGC
Procedure: To examine the response of PMB 1 toward MMP-2 and cathepsin B, its absorption and fluorescence spectra were monitored in the presence of these stimuli at 37 °C over a period of 25 h, using the non-cleavable analogue 14 as the negative control. For studying the MMP-2-responsive effect, MMP-2 (2 μg mL^–1) in PBS at pH 7.4 was used to mimic the high serum levels of this enzyme in patients with cancer.[68] The effect of cathepsin B (using a concentration of 1 unit mL^–1) was studied in the working buffer mentioned above at pH 5.0 to mimic the lysosomal environment.[69] […] Similar results were obtained for the study using cathepsin B in the buffer (Figure S8e–h). […] The more flexible ring-opening structure, however, might slightly increase the separation of the two moieties, leading to a lower FRET efficiency,[70] which could explain the small increase in fluorescence intensity. For comparison, the effect of these enzymes was also studied for 14. As expected, both the absorption and fluorescence spectra were not changed toward these two enzymes (Figure S9).
The fluorescence recovery was then determined for 1 under the aforementioned conditions, assuming that the fluorescence intensity of 8 at the same concentration in the same medium was the maximum fluorescence intensity that could be recovered. […] In addition, we also determined the corresponding on/off ratios by dividing the fluorescence intensity at 25 h by the initial fluorescence intensity under each of these conditions. […]
To further confirm that the restoration of fluorescence emission and singlet oxygen generation of PMB 1 was due to the cleavage by the enzymes, LC–MS was used to analyze the reaction mixtures (Figure 4). […] Similarly, for the mixture obtained after treating 1 (1 μM) with cathepsin B (1 unit mL^–1) in the working buffer at pH 5.0 for 6 h, a new signal with virtually the same retention time was detected in the chromatogram (Figure 4a–c). […]
All of the solutions were stirred continuously at 37 °C. The ir electronic absorption and fluorescence spectra were monitored over a period of 25 h. […]

Structure (SMILES) | ΦF (fluorescence quantum yield) [1] | on/off ratio (fluorescence intensity at 25 h / initial intensity) (MMP-2) | LC-MS signal of intact compound after enzyme treatment (MMP-2; MMP-2 (2 μg mL-1) in PBS, 6 h, new signal at 14.7 min (15))
CCN(CC)c1ccc2nc3ccc(/N=N/c4ccc(N(C)CCCNC(=O)OC[C@@H]5[C@@H]6CCc7nnn(CC(=O)NCCCC[C@@H]8NC(=O)CNC(=O)[C@H](CCCCN)NC(=O)CNC(=O)CNC(=O)CNC(=O)CNC(=O)CNC(=O)[C@H](CCCCN)NC(=O)[C@@H](N)CSCc9cc(COc%10ccc(C%11=C%12C(C)=C(I)C(/C=C/c%13ccc(OCCOCCOCCOC)cc%13)=[N+]%12[B-](F)(F)n%12c(/C=C/c%13ccc(OCCOCCOCCOC)cc%13)c(I)c(C)c%12%11)cc%10)cc(c9)CSC[C@@H](C(N)=O)NC(=O)[C@H](CCCCN)NC(=O)[C@H](CCCCN)NC(=O)CNC(=O)CNC(=O)CNC(=O)CNC(=O)[C@H](CCCCN)NC(=O)CNC8=O)c7CC[C@@H]65)cc4)cc3[n+](-c3ccccc3)c2c1 [compound 14] | 0.01 | below 1.5 | 
CCN(CC)c1ccc2nc3ccc(/N=N/c4ccc(N(C)CCCNC(=O)OC[C@@H]5[C@@H]6CCc7nnn(CC(=O)NCCCC[C@@H]8NC(=O)CNC(=O)[C@H](CCCCN)NC(=O)[C@H](CCCNC(=N)N)NC(=O)[C@H](C(C)C)NC(=O)CNC(=O)[C@H](CC(C)C)NC(=O)[C@@H]9CCCN9C(=O)[C@H](CCCCN)NC(=O)[C@@H](N)CSCc9cc(COc%10ccc(C%11=C%12C(C)=C(I)C(/C=C/c%13ccc(OCCOCCOCCOC)cc%13)=[N+]%12[B-](F)(F)n%12c(/C=C/c%13ccc(OCCOCCOCCOC)cc%13)c(I)c(C)c%12%11)cc%10)cc(c9)CSC[C@@H](C(N)=O)NC(=O)[C@H](CCCCN)NC(=O)[C@H](CCCCN)NC(=O)CNC(=O)[C@H](CC(C)C)NC(=O)[C@H](Cc9ccccc9)NC(=O)CNC(=O)[C@H](CCCCN)NC(=O)CNC8=O)c7CC[C@@H]65)cc4)cc3[n+](-c3ccccc3)c2c1 [compound 1] | 0.01 | ca. 2.7 | disappeared
